What follows are compounds tested on Plasmodium falciparum (assay: GSK_TCMDC: Inhibition of Plasmodium falciparum 3D7 in whole erythrocytes, using parasite LDH activity as an index of growth.). Details: not given.
Assay type: functional, organism-based

Compound | XC50 [µM]
COc1ccc(C[C@H](N)C(=O)N[C@H]2[C@@H](O)[C@H](n3cnc4c(N(C)C)ncnc43)O[C@@H]2CO)cc1 [PUROMYCIN] | 0.174
O=C(Nc1cccc(-c2cccc(-c3nc4ccccc4[nH]3)c2)c1)NC1CC1c1ccccc1 (stereo not given) | 0.898

Same assay, conditions: Plasmodium falciparum, 3D7

Compound | XC50 [µM]
Cc1cccc2nc(-c3ccc(-c4cccc(NC(=O)C(=O)c5cccn5C)c4)cc3)[nH]c12 | 0.976
CCn1c(-c2cc(C)on2)nc2cnc(Oc3ccc(C(=O)N4CC(=O)N(C)C4C(C)(C)C)cc3)cc21 (stereo not given) | 1.82
CCOc1cc(C(=O)NCc2ccc(Cl)c(Cl)c2)ccc1-c1nc2cc(Cl)ccc2[nH]1 | 0.804
O=C(c1ccco1)c1cn(CCOc2ccccc2)c2ccccc12 | 0.748
C=CC[C@H](C[C@H](O)[C@H](Cc1ccccc1)NC(=O)c1nn(-c2ccccc2)nc1C)C(=O)NC1CCCCC1 | 0.915
CN1CCC(NCCS(=O)(=O)c2cccc(Nc3ccc(-c4cccc(F)c4)cn3)c2)CC1 | 1.36
Cc1c(F)cc(C(=O)NC2CC2)cc1-c1ccc2c(c1)c(C)nn2S(=O)(=O)c1cccs1 | 0.942
COc1ccc(-c2cccc(NC(=O)c3cccc(C#N)c3)c2)cc1CN1CCN(C)CC1 | 0.926
N#Cc1c(N)n(CCc2ccc(F)cc2)c2nc3ccccc3nc12 | 0.973
Cc1cc(C)cc(-n2c(C)cc(/C=C3\SC(=Nc4ccc(Cl)cc4)NC3=O)c2C)c1 | 0.0658
COc1cc(Cc2cnc(N)nc2N)ccc1OCc1ccc(-c2csnn2)cc1 | 0.628
COc1ccc(CCNc2nc(N)c3cc(OC)c(OC)cc3n2)cc1 | 1.12
CC(C)(C)c1ccc(-c2csc(NC(=O)CC(c3ccccc3)c3ccccc3)n2)cc1 | 1.15
COCCN(C)CCCOc1cc2c(cc1OC)ncn2-c1cc(OCc2ccccc2C(F)(F)F)c(C(N)=O)s1 | 0.71
CS(=O)(=O)c1ccc(CCNCc2ccc(-c3ccc(CN(C(=O)C4CCCC4)C4CCN(Cc5ccccc5)CC4)cc3)nc2)cc1 | 0.832
O=C(Nc1ccc(-c2csc(-c3nc4ccccc4[nH]3)c2)cc1)Nc1ccc(Cl)c(Cl)c1 | 0.402
CCCCCCc1c(C)nc2cc(OC)ccc2c1O | 0.119
CON(CCCN(C)C)C(=N)N | 1.08
COc1cncc(/C=C/c2cncc(C(=O)NCCc3ccc(Cl)cc3Cl)c2)c1 | 0.879
CC(C)Oc1cc2c(cc1NS(=O)(=O)c1ccc(-c3ccc(Cl)cc3)cc1F)CCN(C)CC2 | 0.919
Cc1cc(C(=O)CN2C(=O)NC(C)(c3ccc4ccccc4c3)C2=O)c(C)n1Cc1ccco1 (stereo not given) | 0.661
FC(F)(F)c1ccc(-c2ccc(CNC3CCN(CCN4CCOCC4)CC3)cc2)cc1 | 0.756
CCOC(=O)CCCc1cc(NC2CCN(C)CC2)nc(Nc2ccc(OC)cc2)n1 | 0.704
O=S(=O)(NCCN1CCCC1)c1ccc(-c2ccc(CNCc3ccsc3)cc2)s1 | 0.832

Compound | XC50 [µM]
Cc1ccc(C)c2sc(N(CCCn3ccnc3)C(=O)c3ccco3)nc12 | 0.874
CCC[C@@H]([C@@H](CC(C)C)C(=O)N[C@@H](CCCCNC(=O)c1cccc(OC)c1)C(=O)Nc1nccs1)N(O)C=O | 0.104
CCCCNC(=O)c1cc(CNC2CCCCC2)ccc1-c1cccc(CNCc2ccc(-c3ccccc3)cc2)c1 | 0.531
Nc1ncnc2nc(-c3ccc(F)cc3)cc(-c3ccc(NC(=O)c4ccccc4)cc3)c12 | 0.64
COc1ccc(NC(=O)[C@H](Cc2ccccc2)Nc2cc(C)nc(NCCOc3ccccc3)n2)cc1 | 1.07
CC(C)(C)OC(=O)N[C@@H](Cc1ccccc1)C(=O)Nc1cccc(-c2cccc(NC(=O)[C@H](Cc3ccccc3)NC(=O)OC(C)(C)C)c2)c1 | 0.609
O=C(Nc1cccc(-c2cccc(-c3nc4ccccc4[nH]3)c2)c1)NC1CC1c1ccccc1 (stereo not given) | 1.07
CC(Oc1c(C2CCN(CCCCNC(=O)c3ccc(-c4ccc(C#N)cc4)cc3)CC2)ccc2c1CCCC2)C(N)=O (stereo not given) | 0.678
Cc1cc(N2CCCC2)nc(Nc2ccc(NC(=O)c3cccc(F)c3)cc2)n1 | 0.182
CCC(C)NC(=O)CN1CN(c2ccccc2)C2(CCN(C(=O)c3ccc(C(C)(C)C)cc3)CC2)C1=O (stereo not given) | 0.125
O=C(/C=C/c1cccc(Cl)c1)NCCCCCN1CCC(c2c[nH]c3ccccc23)CC1 | 0.988
CC1CN(Cc2ccc(C#N)cc2)CCN1c1ccc(NC(=O)c2cccs2)cc1 (stereo not given) | 0.809
COc1ccc2nccc(N3CCC(CCNCc4cc5c(cn4)OCCO5)CC3)c2n1 | 0.224
CN(C)CCCOc1ccc(-c2nc(-c3ccc4c(c3)CCC4=NO)c(-c3ccncc3)[nH]2)cc1 | 0.832
FC(F)(F)c1ccc(COc2cc(Cl)ccc2Cn2ccnc2)cc1 | 0.649
O=C(Nc1ccc(NC2=NCCN2)cc1)c1ccc(C(=O)Nc2ccc(NC3=NCCN3)cc2)cc1 | 0.649
Cc1ccccc1C1CCN(c2ncc(C(=O)Nc3ccccc3)cc2Cl)CC1 | 1.01
Cc1ccc(C(=O)NC2CC2)cc1-c1ccc2c(cnn2S(=O)(=O)c2ccc(F)cc2)c1 | 0.289
Cc1ccc(CN2CCN(CC(O)COc3ccc4c(c3)CCC4)CC2)cc1 (stereo not given) | 0.863
CCCOc1ccc(-c2nonc2NC(=O)c2ccccc2OC)cc1OCCC | 0.858
O=C(Nc1ccc(Cl)c(C(F)(F)F)c1)N[C@H]1CCN(CCCCCNC(=O)C2CC2c2ccc(Cl)c(Cl)c2)C1 (stereo not given in full) | 1.08
Cc1cccc2nc(-c3ccc(-c4cccc(NC(=O)c5cncn5C)c4)s3)[nH]c12 | 0.645
Cc1cc(N[C@@H](CC(C)C)C(=O)NCCc2ccccc2)nc(NCc2ccccc2C)n1 | 0.906
CC(C)C[C@@H](C(=O)Nc1ccc(Cc2ccc(NC(=O)[C@H](CC(C)C)N(C)C(=O)OC(C)(C)C)cc2)cc1)N(C)C(=O)OC(C)(C)C | 0.821

Compound | XC50 [µM]
CN1CCN(S(=O)(=O)c2cccc(Nc3nccc(N(C)c4ccc5c(c4)nc(NC(=O)c4cccs4)n5C)n3)c2)CC1 | 0.746
COc1ccc2[nH]cc(C3CCN(CCC4CCN(C(=O)/C=C/c5ccc(Cl)c(Cl)c5)CC4)CC3)c2c1 | 0.862
CC(C)(CN)c1cc(-c2ccc(Cl)c(O)c2)c(-c2ccncc2)o1 | 1.14
CN(C(=O)OCc1ccccc1)C1CCC(CCN2CCC3(CC2)C(=O)NCN3c2cccc(C(F)(F)F)c2)(c2ccccc2)CC1 (stereo not given) | 1.18
N#CC(c1ccc(Br)cc1)c1ccc2c(C(F)(F)F)cc(C(F)(F)F)nc2n1 (stereo not given) | 0.44
COc1cc(Cc2cnc(N)nc2N)cc(OCCCC(=O)O)c1OC | 1.18
CC1(C)NC(N)=NC(=N)N1OCCCc1ccc(Cl)cc1Cl | 0.0032
CC[C@H]1CN2CC[C@H]1C[C@H]2[C@H](O)c1cc(-c2ccc3ccccc3c2)nc2ccc(OC)cc12 | 0.104
CC(C)(C)NC(=O)COC(=O)c1c2c(nc3ccccc13)C(=Cc1ccc3c(c1)OCO3)CCC2 | 0.735
CC(=NNC(S)=NCc1ccco1)c1ccccn1 | 0.254
Cn1c(N=C2NC3(c4ccccn4)NC(=Nc4nc5ccccc5n4C)NC3(c3ccccn3)N2)nc2ccccc21 (stereo not given) | 1.04
Cc1cc(NCCCCCCNc2cc(C)nc3c(C)cccc23)c2cccc(C)c2n1 | 0.406
COc1ccc2c(=O)ccn(CCN3CCC(NCc4ccc5c(n4)NC(=O)CS5)CC3)c2c1 | 0.233
CCN(CC)c1ccc(NC(=S)NC2CCN(CCCCCNC(=O)/C=C/c3ccc(Cl)c(Cl)c3)CC2)cc1 | 0.883
O=c1cc(NCCCNCc2[nH]c3cc(Cl)ccc3c2Cl)[nH]c2ccccc12 | 0.91
CC(C)C(=O)NC(c1ccc(N(C)C)cc1)c1cc(Cl)c2cccnc2c1O (stereo not given) | 0.859
COc1ccc(C2CCC(NCCCCNC(=O)c3ccc(NC(=O)c4ccc(Cl)cc4)cc3)CC2)cc1 (stereo not given) | 0.627
CN(C)c1cccc2c(S(=O)(=O)Nc3cccc(CCN4CCC(N5CCCCC5)CC4)c3)cccc12 | 0.979
CC(C)(C)OC(=O)NCc1ccc(Nc2nnc(-c3cccc(C(=O)NCc4cc(C(F)(F)F)cc(C(F)(F)F)c4)c3)o2)cc1 | 0.865
COc1ccc2ccccc2c1CCCCN1CCN(CC(c2ccc(F)cc2)N2CCN(C(C)C)CC2)CC1 (stereo not given) | 0.809
Cc1[nH]c(C)c(-c2ccc(CCc3ccc(N)cc3)cc2)c(=O)c1Cl | 0.0985
CCOC(=O)c1ccc(NC(=O)NNC(=O)c2ccc(CCN3CCC(c4nc(COCC(F)(F)F)c(-c5ccc(F)cc5)o4)CC3)cc2)cc1 | 0.574
O=C1C(C2CCC(c3ccc(Cl)cc3)CC2)=C2OCC3COC2(O3)c2ccccc21 (stereo not given) | 0.039
CC(C)(C)c1ccc(CN2CCC(NC(=O)c3ccc(-c4cccc(Cl)c4)s3)CC2)cc1 | 1.07

Compound | XC50 [µM]
CC(C)(C)Oc1ccc(CC2NC3(C(=O)N(Cc4ccc(C(C)(C)C)cc4)c4ccccc43)C3C(=O)N(c4ccc(Br)cc4)C(=O)C23)cc1 (stereo not given) | 0.717
CCN(CCCN1CCCCC1)c1cc(C)nc(Nc2ccc(C(C)C)cc2)n1 | 0.543
Cc1ccc(O)cc1Nc1ccnc2cc(-c3cccc(CNCCS(C)(=O)=O)c3)ccc12 | 0.836
Cc1nc2ccccc2c(=O)n1/N=C/c1ccccc1[N+](=O)[O-] | 0.221
CC(CN1CCN(C)CC1)C(=O)Nc1cccc(-c2ccc(-c3nc4ccccc4[nH]3)s2)c1 (stereo not given) | 0.632
CC(Cc1ccc(NC(=O)c2ccc(CNCCCCc3ccccc3)cc2)cc1)NCCc1cccc(Cl)c1 (stereo not given) | 0.334
COc1ccc(CCNc2nc(NCc3ccccc3)c3cc(OC)c(OC)cc3n2)cc1OC | 0.326
O=c1cc(NCCCNCc2ccc(Cl)c(Cl)c2)[nH]c2ccc(Oc3ccccc3)cc12 | 0.85
N=C(N)NC(=O)Nc1cc(Cl)c(Cl)c(Br)c1 | 0.611
Cc1c(S(=O)(=O)Nc2cccc(CCN3CCCCC3CCN3CCCC3)c2)sc2ccc(Cl)cc12 (stereo not given) | 0.925
COc1ccc2nccc([C@@H](O)CN3CCC(NCCOc4ccccc4[N+](=O)[O-])CC3)c2c1 | 0.384
Cc1cc(=NN=Cc2ccc(Cl)cc2)c2cc(C(F)(F)F)ccc2[nH]1 | 0.92
COc1ccc(Nc2nccc(NCCNC(=O)Nc3cc(C)ccc3C)n2)cc1 | 1.05
O=C(CC1SC(N2N=C(c3cccs3)CC2c2ccccc2)=NC1=O)Nc1ccccc1F (stereo not given) | 1.09
CCCCCCN1CCC(NCc2ccc(Cl)cc2)CC1 | 0.854
Cc1cc(Nc2ccccc2)nc(Nc2ccccc2)n1 | 0.799
O=C1Nc2cccc3c2C1(CCCCCN1CC=C(c2c[nH]c4ccccc24)CC1)CCC3 (stereo not given) | 0.74
N=C(N)c1ccc(-c2cc(-c3cccc(C(=N)N)c3)on2)cc1 | 0.0138
CN(c1ncc(-c2cccc(CNCc3ccccc3O)c2)cn1)C1CCCCC1 | 0.822
N=C(N)Nc1nc(CCCCCCCCc2csc(NC(=N)N)n2)cs1 | 0.598
CCCCCCCCCN1CC[C@@H](CCCc2ccnc3ccc(O)cc23)[C@@H](CC)C1 | 0.29

Source: ChEMBL document CHEMBL1157539, “Thousands of chemical starting points for antimalarial lead identification” (Nature, 2010)
